Patent US10252987B2, “Type of antiviral compound” (Institute of Medicinal Biotechnology, Chinese Academy of …, priority 2015, dated 2019)

What follows are compounds tested on HCV (assay: anti-HCV activity assay in cell culture (HCV RNA by one-step quantitative RT-PCR)). Settings: Hepatitis C virus, Huh7.5, 96 h, compound at 10 μmol/L; Huh7.5 cells infected with HCV virus particles; cultured 96 hrs; HCV RNA in cells vs virus control group; read-out: percent inhibition (%).
Format: cell-based
Description: The assay results of anti-HCV activity of the compound synthesized according to the present invention in cell culture are shown in Table 1, wherein the molecular weight is calculated by ChemBioDraw 12.0 software from the molecular structure of each compound.
100 μL Huh7.5 cells were seeded in 96-well cell culture plate to 1×10^5/mL density, cultured in an incubator at 37° C. under the condition of 5% CO2 and saturated humidity for 6 hrs. Huh7.5 cells were then infected by viral solution containing HCV virus particles, and solutions of compound of the present invention at a concentration of 10 μmol/L liquid were added respectively, cultured for further 96 hrs, and then total RNA was extracted from the cells. Amount of HCV RNA in cells was determined by one-step quantitative RT-PCR, and compared to RNA levels of the virus control group to calculate the inhibition rate of compounds on HCV.

In order of rising inhibition at 10 µM:
1. CN1CCN(c2ccc(C#N)c(CN3CCN(c4ccc(C5CCCC5)cc4)CC3)c2)CC1 [VI-24, 4-(4-methylpiperazin-1-yl)-2-(4-(4-cyclopentylphenyl)piperazin-1-yl)methylbenzonitrile]  59%
2. COc1ccc(N2CCN(Cc3cc(NCN4CCCCC4)ccc3C#N)CC2)cc1 [VI-2, 4-(((piperidin-1-yl)methyl)amino)-2-(4-(4-methoxyphenyl)piperazin-1-yl)methylbenzonitrile]  62%
3. CC(C)c1ccc(N2CCN(Cc3cc(N4CCN(C)CC4)ccc3C#N)CC2)cc1 [VI-16, 4-(4-methylpiperazin-1-yl)-2-(4-(4-isopropylphenyl)piperazin-1-yl)methylbenzonitrile]  68%
4. CSc1ccc(N2CCN(Cc3cc(N4CCN(C)CC4)ccc3C#N)CC2)cc1 [VI-17, 4-(4-methylpiperazin-1-yl)-2-(4-(4-(methylthio)phenyl)piperazin-1-yl)methylbenzonitrile]  70%
5. Cc1ccc(N2CCN(Cc3cc(N4CCCC(N)C4)ccc3C#N)CC2)cc1 (stereo not shown) [VI-7, 4-(3-aminopiperidin-1-yl)-2-((4-(4-methylphenyl)piperazin-1-yl)methyl)benzonitrile]  71%
6. N#Cc1ccc(N2CCNCC2)cc1CN1CCN(c2ccc(Cl)cc2)CC1 [VI-10, 4-(piperazin-1-yl)-2-(4-(4-chlorophenyl)piperazin-1-yl)methylbenzonitrile]  73%
7. N#Cc1ccc(NCCN2CCCCC2)nc1CNCCCc1ccc(C2CCCC2)cc1 [Compound 34, 2-(((4-cyclopentylphenyl)propylamino)methyl)-6-(2-(piperidin-1-yl)ethyl)amino-3-cyanopyridine]  76%
8. CCCN1CCN(c2ccc(C#N)c(CNc3ccc(Sc4ccccc4)cc3)c2)CC1 [Compound 23, 4-(4-propylpiperazin-1-yl)-2-(p-(phenylthio)phenylamino)methylbenzonitrile]  78%
9. COc1ccc(N2CCN(Cc3cc(N4CCNCC4)ccc3C#N)CC2)cc1 [VI-5, 4-(piperazin-1-yl)-2-(4-(4-methoxyphenyl)piperazin-1-yl)methylbenzonitrile]  79%
10. CN1CCN(c2ccc(C#N)c(CN3CCC(c4ccc(C(C)(C)C)cc4)CC3)c2)CC1 [VI-38, 4-(4-methylpiperazin-1-yl)-2-(4-(4-tert-butylphenyl)piperidin-1-yl)methylbenzonitrile]  80%
11. CN1CCN(c2ccc(C#N)c(CNc3ccccc3)c2)CC1 [Compound 4, 4-(4-methylpiperazin-1-yl)-2-(phenylamino)methylbenzonitrile]  82%
12. N#Cc1ccc(N2CCNCC2)cc1CNc1ccccc1 [Compound 7, 4-(piperazin-1-yl)-2-(phenylamino)methylbenzonitrile]  82%
13. CN(C)CCN(C)c1ccc(C#N)c(CN2CCN(c3ccc(N4CCCC4)cc3)CC2)c1 [VI-22, 4-((2-(dimethylamino)ethyl)(methyl)amino)-2-(4-(4-(pyrrolidin-1-yl)phenyl)piperazin-1-yl)methylbenzonitrile]  83%
14. CN1CCN(c2ccc(C#N)c(CN3CCN(c4ccc(C5CCCCC5)cc4)CC3)c2)CC1 [VI-12, 4-(4-methylpiperazin-1-yl)-2-(4-(4-cyclohexylphenyl)piperazin-1-yl)methylbenzonitrile]  86%
15. C=CCN1CCN(c2ccc(C#N)c(CN(C)c3ccc(C(C)(C)C)cc3)c2)CC1 [Compound 19, 4-(4-allylpiperazin-1-yl)-2-((p-tert-butylphenyl)(methyl)amino)methylbenzonitrile]  86%
16. Cc1ccc(N2CCN(Cc3cc(N(C)CN4CCCC4)ccc3C#N)CC2)cc1 [VI-37, 4-((methyl)((pyrrolidin-1-yl)-methyl)amino)-2-(4-p-methylphenylpiperazin-1-yl)methylbenzonitrile]  87%
17. CCCN(Cc1cc(N2CCN(C)CC2)ccc1C#N)c1ccc(Cl)cc1 [Compound 15, 4-(4-methylpiperazin-1-yl)-2-((p-chlorophenyl)(propyl)amino)methylbenzonitrile]  88%
18. CN(C)CN(C)c1ccc(C#N)c(CN(C)c2ccc(C(C)(C)C)cc2)c1 [Compound 33, 2-((4-tert-butylphenyl)(methyl)amino)methyl-4-(((dimethylamino)methyl)(methyl)amino)benzonitrile]  89%
19. CC(C)c1ccc(NCc2cc(N3CCN(C)CC3)ccc2C#N)cc1 [Compound 21, 4-(4-methylpiperazin-1-yl)-2-(p-isopropylphenylamino)methylbenzonitrile]  90%
20. CN(C)CNc1ccc(C#N)c(CN2CCN(c3ccc(C(C)(C)C)cc3)CC2)c1 [VI-33, 2-(4-(4-tert-butylphenyl)piperazin-1-yl)methyl-4-((N,N-dimethylamino)methyl)amino-benzonitrile]  90%
21. COc1ccc(N2CCN(Cc3cc(N4CCN(C)CC4)ccc3C#N)CC2)cc1 [VI-3, 4-((4-methyl)piperazin-1-yl)-2-(4-(4-methoxyphenyl)piperazin-1-yl)methylbenzonitrile]  91%
22. CN1CCN(c2ccc(C#N)c(CNc3ccc(Cl)cc3)c2)CC1 [Compound 8, 4-(4-methylpiperazin-1-yl)-2-(p-chlorophenylamino)methylbenzonitrile]  91%
23. CN1CCN(c2ccc(C#N)c(CN3CCN(c4ccc(Cl)cc4)CC3)c2)CC1 [VI-9, 4-(4-methylpiperazin-1-yl)-2-(4-(4-chlorophenyl)piperazin-1-yl)methylbenzonitrile]  92%
24. N#Cc1ccc(N2CCNCC2)cc1CNc1ccc(Cl)cc1 [Compound 9, 4-(piperazin-1-yl)-2-(p-chlorophenylamino)methylbenzonitrile]  92%
25. Cc1cc(N2CCN(Cc3cc(N4CCNCC4)ccc3C#N)CC2)ccc1Cl [VI-15, 4-(piperazin-1-yl)-2-(4-(3-methyl4-chlorophenyl)piperazin-1-yl)methylbenzonitrile]  95%
26. CCCN(Cc1cc(N2CCN(C)CC2)ccc1C#N)c1ccc(C(C)(C)C)cc1 [Compound 17, 4-(4-methylpiperazin-1-yl)-2-((p-tert-butylphenyl)(propyl)amino)methylbenzonitrile]  96%
27. Cc1ccc(NCc2cc(N3CCNCC3)ccc2C#N)cc1 [Compound 1, 4-(piperazin-1-yl)-2-((p-methylphenylamino)methyl)benzonitrile]  97%

Same assay, conditions: compound at 10 μmol/L; Huh7.5 cells infected with HCV virus particles; cultured 96 hrs; HCV RNA in cells vs virus control group

In order of falling “percent inhibition (%)” value:
1. COc1ccc(N2CCN(Cc3cc(NCCN(C)C)ccc3C#N)CC2)cc1 [VI-1]  99%
2. COc1ccc(N2CCN(Cc3cc(NC(C)CN4CCCC4)ccc3C#N)CC2)cc1 (stereo not shown) [VI-46, 4-(1-(pyrrolidin-1-yl)propyl-2-yl)amino-2-(4-p-methoxyphenylpiperazin-1-yl)methylbenzonitrile]  95%
3. COc1ccc(N2CCN(Cc3cc(N(C)CCN(C)C)ccc3C#N)CC2)cc1OC [VI-45, 4-(N,N′,N′-trimethyl-1,2-ethylenediamin-1-yl)-2-(3,4-dimethoxyphenylpiperazin-1-yl)methylbenzonitrile]  92%
4. COc1ccc(N2CCN(Cc3cc(N(C)CCN(C)C)ccc3C#N)CC2)cc1 [VI-31, 4-(N,N′,N′-trimethyl-1,2-ethylenediamin-1-yl)-2-(4-p-methoxyphenylpiperazin-1-yl)methylbenzonitrile]  91%
5. CN(C)C1CCN(c2ccc(C#N)c(CN3CCN(c4ccc(Cl)cc4)CC3)c2)C1 (stereo not shown) [VI-44, 4-((3-dimethylamino)pyrrolidin-1-yl)-2-(4-p-chlorophenylpiperazin-1-yl)methylbenzonitrile]  89%
6. CN1CCN(c2ccc(C#N)c(CN3CCN(c4ccc(Br)cc4)CC3)c2)CC1 [VI-18, 4-(4-methylpiperazin-1-yl)-2-(4-(4-bromophenyl)piperazin-1-yl)methylbenzonitrile]  86%
7. N#Cc1ccc(N2CCNCC2)cc1CN1CCN(c2ccccc2)CC1 [VI-8, 4-(piperazin-1-yl)-2-(4-(4-phenyl)piperazin-1-yl)methylbenzonitrile]  82%
8. CN(C)CCCNc1ccc(C#N)c(CNc2ccc(Cl)cc2)c1 [Compound 29, 4-(N,N-dimethyl-1,3-propanediamin-1-yl)-2-(p-chlorophenylamino)methylbenzonitrile]  80%
9. CN(C)CCCN(C)c1ccc(C#N)c(CN2CCN(c3ccc(C4CCCCC4)cc3)CC2)c1 [VI-32, 4-(N,N′,N′-trimethyl1,3-propanediamin-1-yl)-2-(4-p-cyclohexylphenylpiperazin-1-yl)methylbenzonitrile]  80%
10. CN(C)CCNc1ccc(C#N)c(CN2CCN(c3ccc(C(F)(F)F)cc3)CC2)c1 [VI-28, 4-(N′,N′-dimethyl-1,2-ethylenediamin-1-yl)-2-(4-p-trifluoromethylphenyl-piperazin-1-yl)methylbenzonitrile]  79%
11. CN(C)CCCNc1ccc(C#N)c(CNc2ccccc2)c1 [Compound 27, 4-(N,N-dimethyl-1,3-propanediamin-1-yl)-2-(phenylamino)methylbenzonitrile]  78%
12. COc1cc(NCc2nc(N(C)CCN(C)C)ccc2C#N)cc(OC)c1 [Compound 39]  75%
13. CN(C)CCCNc1ccc(C#N)c(CN2CCN(c3ccccc3)CC2)c1 [VI-27, 4-(N′,N′-dimethyl-1,3-propanediamin-1-yl)-2-(4-phenylpiperazin-1-yl)methylbenzonitrile]  60%
